Data on 1 compound can be found in US6294573A, “Reverse hydroxamate inhibitors of matrix metalloproteinases” (Abbott Laboratories, priority 2000, dated 2001).

Structures are written as SMILES.

The assay concerns the target T1, Recombinant truncated stromelysin (human sequence) (Homo sapiens, UniProt P08254).
T1 construct: made in house; host or cells: E. coli
The experiment in a line: Inhibition of stromelysin (cleavage of thiopeptide ester substrate, DTNB readout at 405 nm). The class given is biochemical. The note with it: 30 minute assay, ambient temperature, pH 6.5, thiopeptide ester substrate. As for the experimental part:
The efficacy of the compounds of this invention as matrix metalloproteinase inhibitors was determined by measuring the inhibition of stromelysin. The inhibition of stromelysin by the compounds of this invention was determined as follows: Recombinant truncated stromelysin (human sequence) produced in E. coli was prepared by expression and purification of the protein as described by Ye et al. (Biochemistry, 1992, 31, 11231-11235, which is incorporated herein by reference). The enzyme was assayed by its cleavage of the thiopeptide ester substrate Ac-Pro-Leu-Gly-[2-mercapto-4-methylpentanoyl]-Leu-Gly-OEt as described by Weingarten and Feder (Anal. Biochem., 1985, 147, 437-440 (1985), which is incorporated herein by reference) as a substrate of vertebrate collagenase. The reported conditions were modified to allow assays to be carried out in a microtiter plate. Upon hydrolysis of the thioester bond, the released thiol group reacted rapidly with 5,5'-dithio-bis(2-nitrobenzoic acid) (DTNB) to produce a yellow color which was measured by a microtiter plate reader set at 405 nm. The rates of cleavage of the substrate by stromelysin in the presence or absence of inhibitors were measured in a 30 minute assay at ambient temperature. […] The potency of the compounds [IC50 ] was calculated from the inhibition/inhibitor concentration data.

T1 sequence (P08254 100-273 limits assumed): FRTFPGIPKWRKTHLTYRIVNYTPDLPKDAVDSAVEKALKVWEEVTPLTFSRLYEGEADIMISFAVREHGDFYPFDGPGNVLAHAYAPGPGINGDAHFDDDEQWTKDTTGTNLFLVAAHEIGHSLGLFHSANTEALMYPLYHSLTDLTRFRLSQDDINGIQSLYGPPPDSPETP

As to `CN1C(=O)N(CCC(COc2ccc(-c3ccc(C#N)cc3)cc2)N(O)C=O)C(=O)C1(C)C` (racemic) [Example 5, (±)-N-[1-[[(4'-cyano-[1,1'-biphenyl]-4-yl)oxy]methyl]-3-(3,4,4-trimethyl-2,5-dioxo-1-imidazolidinyl)propyl]-N-hydroxyformamide], the IC50 (in general, the midpoint of a concentration-inhibition curve) was 17 nM.
